Results on 13 molecules are retold here after ChEMBL document CHEMBL3217740, “Novel selective inhibitors of neutral endopeptidase: discovery by screening and hit-to-lead optimisation” (Medchemcomm, 2012).

As usually defined, the IC50 is the concentration at which inhibition is half-maximal. The term half-life denotes how long it takes for the measured level to halve. As usually defined, the solubility is how much of the substance goes into solution per volume. Low readings indicate little dissolved substance, high ones much dissolved substance. For orientation: logD means the decadic logarithm of the distribution of all forms, ionised or not, between an organic phase and buffer at a given pH. Low readings indicate a more hydrophilic compound, high ones a more lipophilic compound.

Each structure is given as a SMILES string. In brackets after ≈: the same amount, converted by molar mass. Bounds are passed on as bounds.

The target of data set [1] is Angiotensin-converting enzyme (Homo sapiens, UniProt P12821). As to the kind of experiment: Inhibition of human ACE-1 using Abz-Gly-p-nitro-Phe-Pro-OH as substrate preincubated for 10 mins followed by substrate addition measured after 17 hrs by spectrophotometric analysis.
The target in data set [2] is T1, Endothelin-converting enzyme 1 (Homo sapiens, UniProt P42892).
T1 sequence (P42892 whole entry): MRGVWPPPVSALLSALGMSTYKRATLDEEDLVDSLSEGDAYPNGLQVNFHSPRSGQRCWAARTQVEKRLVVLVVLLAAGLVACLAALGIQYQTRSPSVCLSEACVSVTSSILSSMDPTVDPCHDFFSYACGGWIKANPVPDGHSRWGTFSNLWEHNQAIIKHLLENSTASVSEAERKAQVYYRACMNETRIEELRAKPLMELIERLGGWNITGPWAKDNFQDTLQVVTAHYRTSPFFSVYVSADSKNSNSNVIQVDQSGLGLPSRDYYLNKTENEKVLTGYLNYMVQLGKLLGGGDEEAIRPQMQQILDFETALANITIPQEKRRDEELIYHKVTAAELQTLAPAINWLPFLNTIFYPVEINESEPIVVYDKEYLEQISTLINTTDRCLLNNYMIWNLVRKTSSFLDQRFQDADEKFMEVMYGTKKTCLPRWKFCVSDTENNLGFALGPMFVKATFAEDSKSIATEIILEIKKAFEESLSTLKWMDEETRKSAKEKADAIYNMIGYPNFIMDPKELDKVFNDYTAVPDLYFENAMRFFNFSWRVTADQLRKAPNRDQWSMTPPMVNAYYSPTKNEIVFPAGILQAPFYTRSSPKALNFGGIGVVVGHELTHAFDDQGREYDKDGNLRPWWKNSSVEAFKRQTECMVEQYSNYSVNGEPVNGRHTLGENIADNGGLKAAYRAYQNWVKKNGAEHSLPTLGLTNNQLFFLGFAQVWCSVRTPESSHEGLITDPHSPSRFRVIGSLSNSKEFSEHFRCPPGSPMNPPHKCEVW
The experiment in a line: Inhibition of ECE-1 in human NCO cells using Mca-Arg-Pro-Pro-GlyPhe-Ser-Ala-DpaOH as substrate after 45 mins by fluorescence assay. The class given is cell-based.

Data set [3] in a line: Half life in rat plasma at 10 uM by LC-MS/MS. The class given is ADME, cell-free.
Data set [4] is described as follows: Solubility of the compound in PBS buffer at pH 7.4 after 24 hrs by LC-MS/MS analysis. The class given is physicochemical.
Data set [5] in a line: 1-octanol-PBS distribution coefficient, Log D of the compound at pH 7.4 after 2 hrs by LC-MS analysis. Type of data set: physicochemical.
A further data set addresses Neprilysin (Homo sapiens, UniProt P08473). The experiment in a line: Inhibition of human NEP using N-Dansyl-D-Ala-Gly-p-nitro-Phe-Gly as substrate preincubated for 10 mins followed by substrate addition measured after 2 hrs by spectrophotometric analysis.
Data set [6] can be described thus: Stability of the compound assessed as GSH adduct formation by LC-MS analysis. Type of data set: ADME.

Chain of Angiotensin-converting enzyme (P12821 whole entry): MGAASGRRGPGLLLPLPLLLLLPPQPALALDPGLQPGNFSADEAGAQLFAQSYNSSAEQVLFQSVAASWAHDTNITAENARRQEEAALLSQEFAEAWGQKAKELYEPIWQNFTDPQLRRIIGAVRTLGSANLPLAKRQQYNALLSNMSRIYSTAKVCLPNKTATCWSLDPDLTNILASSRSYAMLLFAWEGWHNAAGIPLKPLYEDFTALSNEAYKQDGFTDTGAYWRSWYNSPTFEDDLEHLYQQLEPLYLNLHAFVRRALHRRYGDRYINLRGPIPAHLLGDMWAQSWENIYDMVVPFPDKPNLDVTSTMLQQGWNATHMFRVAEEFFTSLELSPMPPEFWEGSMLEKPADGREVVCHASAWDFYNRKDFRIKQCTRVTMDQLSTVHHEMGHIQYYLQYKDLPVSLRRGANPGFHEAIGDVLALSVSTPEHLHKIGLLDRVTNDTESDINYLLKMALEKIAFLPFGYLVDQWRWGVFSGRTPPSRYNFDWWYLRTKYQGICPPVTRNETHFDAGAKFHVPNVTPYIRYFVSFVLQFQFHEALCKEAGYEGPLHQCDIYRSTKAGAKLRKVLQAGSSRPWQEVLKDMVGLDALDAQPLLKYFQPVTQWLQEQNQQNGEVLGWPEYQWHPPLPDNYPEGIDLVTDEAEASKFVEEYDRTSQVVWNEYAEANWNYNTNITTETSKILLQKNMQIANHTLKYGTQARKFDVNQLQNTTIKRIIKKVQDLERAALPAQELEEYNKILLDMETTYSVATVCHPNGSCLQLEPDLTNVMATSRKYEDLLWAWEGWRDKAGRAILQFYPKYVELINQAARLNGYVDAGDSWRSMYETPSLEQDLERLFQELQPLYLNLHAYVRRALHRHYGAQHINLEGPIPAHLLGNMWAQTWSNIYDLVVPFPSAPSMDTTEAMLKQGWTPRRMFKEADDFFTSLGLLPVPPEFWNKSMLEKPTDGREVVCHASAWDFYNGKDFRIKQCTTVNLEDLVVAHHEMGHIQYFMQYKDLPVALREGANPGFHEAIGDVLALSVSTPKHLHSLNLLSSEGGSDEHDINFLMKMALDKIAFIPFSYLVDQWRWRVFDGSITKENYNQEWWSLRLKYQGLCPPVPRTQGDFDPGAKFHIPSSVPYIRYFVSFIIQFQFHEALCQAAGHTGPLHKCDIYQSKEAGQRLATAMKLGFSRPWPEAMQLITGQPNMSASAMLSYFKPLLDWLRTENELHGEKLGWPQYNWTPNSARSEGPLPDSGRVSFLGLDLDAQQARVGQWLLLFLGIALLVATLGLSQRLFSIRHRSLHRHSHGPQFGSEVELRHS
Chain of Neprilysin (P08473 whole entry): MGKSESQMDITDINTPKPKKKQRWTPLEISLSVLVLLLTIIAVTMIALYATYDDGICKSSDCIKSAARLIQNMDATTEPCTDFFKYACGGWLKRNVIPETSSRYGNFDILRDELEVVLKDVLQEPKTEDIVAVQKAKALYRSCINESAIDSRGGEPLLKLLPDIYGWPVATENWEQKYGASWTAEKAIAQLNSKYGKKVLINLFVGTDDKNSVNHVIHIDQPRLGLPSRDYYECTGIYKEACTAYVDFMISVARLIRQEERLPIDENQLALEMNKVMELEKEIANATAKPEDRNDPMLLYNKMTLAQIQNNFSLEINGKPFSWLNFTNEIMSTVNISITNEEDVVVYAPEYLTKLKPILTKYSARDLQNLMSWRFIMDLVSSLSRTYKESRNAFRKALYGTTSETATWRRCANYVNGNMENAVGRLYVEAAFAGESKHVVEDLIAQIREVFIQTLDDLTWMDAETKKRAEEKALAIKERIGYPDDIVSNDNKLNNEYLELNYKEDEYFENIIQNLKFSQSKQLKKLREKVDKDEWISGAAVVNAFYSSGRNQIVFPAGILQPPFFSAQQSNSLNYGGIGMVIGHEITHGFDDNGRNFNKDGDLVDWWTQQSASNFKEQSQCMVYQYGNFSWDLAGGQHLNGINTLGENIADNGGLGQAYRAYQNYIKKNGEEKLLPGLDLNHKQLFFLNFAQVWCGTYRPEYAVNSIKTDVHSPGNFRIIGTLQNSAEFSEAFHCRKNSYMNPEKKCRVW

Turning to `CC(C)C[C@@H](CC(=O)N[C@@H](CO)C(=O)O)C(=O)O`, the figures for the IC50 (in data set [1]; in data set [2]; against Neprilysin) were more than 31.6 µM, more than 31.6 µM and 0.794 µM, respectively. The half-life at 10 µM in data set [3] is more than 24 h. This molecule also had a solubility at 24 h in data set [4] of more than 200 µM. This molecule had a pH-dependent lipophilicity (logD) at 2 h in data set [5] of -3.4.

As to `COC(=O)C(CC(C)C)C(=O)N[C@@H](CO)C(=O)O` (mixture of isomers), half-maximal inhibition against Neprilysin (IC50) required 50.1 µM.

Take `CC(C)C[C@H](CC(=O)N[C@@H](CO)C(=O)O)C(=O)O`: the IC50 was more than 31.6 µM in data set [1], more than 31.6 µM in data set [2] and more than 1000 µM on Neprilysin. The molecule also had a half-life at 10 µM in data set [3] of more than 24 h. Moreover, the solubility at 24 h in data set [4] is more than 200 µM. The molecule also displayed a logD at 2 h in data set [5] of -3.8.

As for `COC(=O)[C@@H](CC(=O)N[C@H](CO)C(=O)O)CC(C)C`, at Neprilysin, the half-maximal inhibitory concentration (IC50) was more than 1000 µM.

Consider `COC(=O)[C@H](CC(C)C)NC(=O)N[C@@H](CO)C(=O)O`, for which the IC50 against Neprilysin was more than 1000 µM.

Turning to `CC(C)C[C@H](CC(=O)O)C(=O)N[C@@H](CO)C(=O)O`, the results for the half-inhibitory concentration (IC50) (in data set [1]; in data set [2]; against Neprilysin) were more than 31.6 µM, more than 31.6 µM and 6.31 µM, respectively. In data set [3], this molecule registered a half-life at 10 µM of more than 24 h. In data set [4], the solubility at 24 h is more than 200 µM. In data set [5], the logD at 2 h was -3.8.

For `COC(=O)C(CC(C)C)C(=O)N[C@H](CO)C(=O)O` (mixture of isomers), the half-maximal inhibitory concentration (IC50) against Neprilysin was more than 1000 µM.

`CC(C)C[C@H]1CC(=O)N([C@@H](CO)C(=O)O)C1=O`: the Stability entry in data set [6] is reported as “Unstable”. Further, at Neprilysin, the half-maximal inhibitory concentration (IC50) is 2.51 µM.

On Neprilysin, `COC(=O)[C@H](CC(C)C)NC(=O)N[C@H](CO)C(=O)O` (single isomer, unassigned) showed an IC50 of more than 1000 µM.

Take `COC(=O)[C@H](CC(=O)N[C@H](CO)C(=O)O)CC(C)C`: the IC50 against Neprilysin is more than 1000 µM.

On to `COC(=O)[C@H](CC(=O)N[C@@H](CO)C(=O)O)CC(C)C`, for which the half-life at 10 µM in data set [3] is 0.1 h. Besides, the solubility at 24 h in data set [4] came to 160 µM (≈ 44 µg/mL). In addition, at Neprilysin, the IC50 is 79.4 µM.

In turn, `COC(=O)[C@@H](CC(=O)N[C@@H](CO)C(=O)O)CC(C)C` had an IC50 against Neprilysin of more than 1000 µM.

In the case of `CC(C)C[C@@H](CC(=O)O)C(=O)N[C@@H](CO)C(=O)O`, the IC50 in data set [1] was more than 31.6 µM; in data set [2], more than 31.6 µM; against Neprilysin, 0.0631 µM. In data set [6], the Stability result was “Stable”. The half-life at 10 µM in data set [3] is more than 24 h. In data set [4], this molecule came in with a solubility at 24 h of more than 200 µM. The same molecule displayed a logD at 2 h in data set [5] of -3.7.
